#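 Briefly, cells in 96-well plates were exposed to five compound concentrations for 48 h, and endpoints were estimated by linear interpolation. TGI: concentration producing complete growth inhibition.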
# Key:
# Experiment in all cases: inhibition of tumour cell growth, NCI panel, 48 h
# [1] = system: SK-MEL-28 melanoma
# [2] = system: U251 CNS
# [3] = system: KM12 colon
# [4] = system: NCI/ADR-RES ovarian
# [5] = system: OVCAR-5 ovarian
# [6] = system: LOX IMVI melanoma
# [7] = system: SN12C renal
# [8] = system: A549 NSCLC
# [9] = system: UACC-257 melanoma
# [10] = system: BT-549 breast
# [11] = system: HOP-62 NSCLC
# [12] = system: A498 renal
# [13] = system: CCRF-CEM leukemia
# [14] = system: OVCAR-4 ovarian
# [15] = system: OVCAR-8 ovarian
# [16] = system: T-47D breast
# [17] = system: RXF 393 renal
# [18] = system: K-562 leukemia
# [19] = system: DU-145 prostate
# [20] = system: HCT-15 colon
# [21] = system: SR leukemia
# [22] = system: MDA-MB-435
# [23] = system: MCF7 breast
# [24] = system: CAKI-1 renal
# [25] = system: MOLT-4 leukemia
# [26] = system: UO-31 renal
# [27] = system: MALME-3M melanoma
# [28] = system: NCI-H226 lung
# [29] = system: IGROV1 ovarian
# [30] = system: HT29 colon
# [31] = system: TK-10 renal
# [32] = system: SK-MEL-5 melanoma
# [33] = system: PC-3 prostate
# [34] = system: OVCAR-3 ovarian
# [35] = system: SF-268 CNS
# [36] = system: NCI-H23 lung
# [37] = system: MDA-N
# [38] = system: RPMI-8226 leukemia
# [39] = system: NCI-H460 lung
# [40] = system: SF-295 CNS
# [41] = system: SW-620 colon
# [42] = system: MDA-MB-231 breast
# [43] = system: NCI-H522 lung
# [44] = system: M14 melanoma
# [45] = system: HOP-92 NSCLC
# [46] = system: COLO 205 colon
# [47] = system: SK-OV-3 ovarian
# [48] = system: EKVX NSCLC
# [49] = system: HS 578T breast
# [50] = system: SNB-19 CNS
# [51] = system: HCT-116 colon
# [52] = system: HCC-2998 colon
# [53] = system: HL-60(TB) leukemia
# [54] = system: 786-0 renal
# [55] = system: SF-539 CNS
# [56] = system: ACHN renal
# [57] = system: UACC-62 melanoma
# [58] = system: SK-MEL-2 melanoma
structure (smiles),measurement,setting,value
O=C(CCc1ccc(O)c(O)c1)OCCc1ccccc1,TGI,[1],> 100 µM
same,TGI,[2],> 100 µM
same,TGI,[3],> 100 µM
same,TGI,[4],> 100 µM
same,TGI,[5],> 100 µM
same,TGI,[6],54.8 µM
same,TGI,[7],> 100 µM
same,TGI,[8],> 100 µM
same,TGI,[9],> 100 µM
same,TGI,[10],> 100 µM
same,TGI,[11],> 31.6 µM
same,TGI,[12],> 100 µM
same,TGI,[13],76.3 µM
same,TGI,[14],> 65.6 µM
same,TGI,[15],> 100 µM
same,TGI,[16],> 100 µM
same,TGI,[17],> 100 µM
same,TGI,[18],> 57.5 µM
same,TGI,[19],> 100 µM
same,TGI,[20],> 100 µM
same,TGI,[21],> 78.2 µM
same,TGI,[22],40.6 µM
same,TGI,[23],> 100 µM
same,TGI,[24],> 100 µM
same,TGI,[25],> 83.4 µM
same,TGI,[26],> 100 µM
same,TGI,[27],> 100 µM
same,TGI,[28],> 100 µM
same,TGI,[29],> 100 µM
same,TGI,[30],> 100 µM
same,TGI,[31],> 100 µM
same,TGI,[32],> 100 µM
same,TGI,[33],> 100 µM
same,TGI,[34],> 100 µM
same,TGI,[35],> 100 µM
same,TGI,[36],> 100 µM
same,TGI,[37],30.4 µM
same,TGI,[38],> 86.6 µM
same,TGI,[39],> 100 µM
same,TGI,[40],> 100 µM
same,TGI,[41],> 62.2 µM
same,TGI,[42],> 100 µM
same,TGI,[43],17.8 µM
same,TGI,[44],> 100 µM
same,TGI,[45],> 100 µM
same,TGI,[46],> 100 µM
same,TGI,[47],> 100 µM
same,TGI,[48],> 100 µM
same,TGI,[49],> 100 µM
same,TGI,[50],> 100 µM
same,TGI,[51],> 100 µM
same,TGI,[52],> 100 µM
same,TGI,[53],17.3 µM
same,TGI,[54],> 100 µM
same,TGI,[55],54.5 µM
same,TGI,[56],> 100 µM
same,TGI,[57],> 100 µM
same,TGI,[58],> 100 µM
CC(=O)c1cc(I)c(O)c2ncccc12,TGI,[1],> 10 µM
same,TGI,[2],> 10 µM
same,TGI,[3],> 10 µM
same,TGI,[4],8.24 µM
same,TGI,[5],> 10 µM
same,TGI,[6],> 10 µM
same,TGI,[7],> 10 µM
same,TGI,[8],> 10 µM
same,TGI,[9],6.06 µM
same,TGI,[10],> 10 µM
same,TGI,[11],> 10 µM
same,TGI,[12],6.53 µM
same,TGI,[13],4.45 µM
same,TGI,[14],6.82 µM
same,TGI,[15],7.38 µM
same,TGI,[16],> 10 µM
same,TGI,[17],8.76 µM
same,TGI,[18],> 10 µM
same,TGI,[19],8.45 µM
same,TGI,[20],> 10 µM
same,TGI,[21],8.98 µM
same,TGI,[22],> 10 µM
same,TGI,[23],> 10 µM
same,TGI,[24],> 10 µM
same,TGI,[25],5.77 µM
same,TGI,[27],6.97 µM
same,TGI,[28],5.7 µM
same,TGI,[29],7.44 µM
same,TGI,[30],> 10 µM
same,TGI,[31],> 10 µM
same,TGI,[32],5.08 µM
same,TGI,[33],> 10 µM
same,TGI,[34],6.57 µM
same,TGI,[35],9.86 µM
same,TGI,[36],8.45 µM
same,TGI,[37],> 10 µM
same,TGI,[38],> 10 µM
same,TGI,[39],> 10 µM
same,TGI,[40],9.61 µM
same,TGI,[41],> 10 µM
same,TGI,[42],8.09 µM
same,TGI,[43],> 10 µM
same,TGI,[44],4.09 µM
same,TGI,[45],6.19 µM
same,TGI,[46],7.81 µM
same,TGI,[47],> 10 µM
same,TGI,[48],> 10 µM
same,TGI,[49],> 10 µM
same,TGI,[50],> 10 µM
same,TGI,[51],5.93 µM
same,TGI,[52],> 10 µM
same,TGI,[53],4.28 µM
same,TGI,[54],9.07 µM
same,TGI,[55],6.57 µM
same,TGI,[56],5.6 µM
same,TGI,[57],7.9 µM
same,TGI,[58],> 10 µM

# — PubChem BioAssay (NCI)
